Laboratory results published in US11912703B2, “6-azaindole compounds” (BRISTOL-MYERS SQUIBB COMPANY, priority 2017, dated 2024).

Tests used:
human TLR7 = human TLR7 (Homo sapiens (Human), UniProt Q9NYK1); assay: TLR7 inhibition reporter assay (HEK-Blue SEAP); assay type: cell-based; conditions: HEK-Blue cells overexpressing human TLR7, gardiquimod 7.5 μM stimulation
Procedure: (§1) HEK-Blue™-cells (Invivogen) overexpressing human TLR7, TLR8 or TLR9 receptors were used for screening inhibitors of these receptors using an inducible SEAP (secreted embryonic alkaline phosphatase) reporter gene under the control of the IFN-β minimal promoter fused to five NF-κB and AP-1-binding sites. Briefly, cells are seeded into Greiner 384 well plates (15000 cells per well for TLR7, 20,000 for TLR8 and 25,000 for TLR9) and then treated with test compounds in DMSO to yield a final dose response concentration range of 0.05 nM-50 μM. After a 30 minute compound pre-treatment at room temperature, the cells are then stimulated with a TLR7 ligand (gardiquimod at a final concentration of 7.5 μM), TLR8 ligand (R848 at a final concentration of 15.9 μM) or TLR9 ligand (ODN2006 at a final concentration of 5 nM) to activate NF-κB and AP-1 which induce the production of SEAP. After a 22 hour incubation at 37° C., 500 CO2, SEAP levels are determined with the addition of HEK-Blue™ Detection reagent (Invivogen), a cell culture medium that allows for detection of SEAP, according to manufacturer's specifications.

human TLR8 = human TLR8 (Homo sapiens (Human), UniProt Q9NR97); assay: TLR8 inhibition reporter assay (HEK-Blue SEAP); conditions: read-out: TLR8 IC50; HEK-Blue cells overexpressing human TLR8, R848 15.9 μM stimulation, SEAP reporter;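 note: SEAP driven by IFN-β minimal promoter with five NF-κB and AP-1 sites, compounds tested 0.05 nM to 50 µM, 22 h incubation, inhibition relative to agonist plus DMSO wells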
Sequence of human TLR8 (Q9NR97 27-1041): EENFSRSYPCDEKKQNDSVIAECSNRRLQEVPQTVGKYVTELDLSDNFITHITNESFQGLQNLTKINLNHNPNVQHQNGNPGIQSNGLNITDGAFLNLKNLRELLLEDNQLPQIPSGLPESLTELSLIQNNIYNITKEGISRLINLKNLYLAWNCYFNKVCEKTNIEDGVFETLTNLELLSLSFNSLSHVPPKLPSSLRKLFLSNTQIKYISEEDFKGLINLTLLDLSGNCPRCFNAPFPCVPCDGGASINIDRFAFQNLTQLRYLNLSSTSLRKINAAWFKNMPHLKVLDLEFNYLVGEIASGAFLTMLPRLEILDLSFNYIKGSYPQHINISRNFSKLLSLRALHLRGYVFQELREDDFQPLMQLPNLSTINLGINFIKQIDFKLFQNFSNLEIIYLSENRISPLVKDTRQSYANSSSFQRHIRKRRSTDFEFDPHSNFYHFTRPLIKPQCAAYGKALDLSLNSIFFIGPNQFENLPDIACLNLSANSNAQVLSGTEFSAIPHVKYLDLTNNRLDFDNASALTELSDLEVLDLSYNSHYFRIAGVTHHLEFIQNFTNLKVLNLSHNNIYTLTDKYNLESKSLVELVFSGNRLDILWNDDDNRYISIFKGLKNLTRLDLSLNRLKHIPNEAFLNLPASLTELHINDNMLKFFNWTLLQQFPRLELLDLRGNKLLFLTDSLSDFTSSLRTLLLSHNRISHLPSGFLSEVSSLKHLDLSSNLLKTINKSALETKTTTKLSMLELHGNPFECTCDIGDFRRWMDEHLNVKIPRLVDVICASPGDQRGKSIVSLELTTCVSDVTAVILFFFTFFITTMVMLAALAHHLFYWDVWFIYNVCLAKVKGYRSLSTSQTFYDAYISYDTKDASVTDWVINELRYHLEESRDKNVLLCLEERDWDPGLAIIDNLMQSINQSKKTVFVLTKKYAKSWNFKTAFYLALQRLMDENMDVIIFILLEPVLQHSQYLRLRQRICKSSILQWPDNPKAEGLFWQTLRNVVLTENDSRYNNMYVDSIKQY
Procedure: as §1

human TLR9 = human TLR9 (Homo sapiens (Human), UniProt Q9NR96); assay: TLR9 inhibition reporter assay (HEK-Blue SEAP); conditions: read-out: TLR9 IC50; HEK-Blue cells overexpressing human TLR9, ODN2006 5 nM stimulation, SEAP reporter;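 note: SEAP driven by IFN-β minimal promoter carrying five NF-κB and AP-1 sites, 22 h at 37 °C, compounds 0.05 nM–50 µM, inhibition scaled between agonist-plus-DMSO and reference-inhibitor wells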
Sequence of human TLR9 (Q9NR96 26-1032): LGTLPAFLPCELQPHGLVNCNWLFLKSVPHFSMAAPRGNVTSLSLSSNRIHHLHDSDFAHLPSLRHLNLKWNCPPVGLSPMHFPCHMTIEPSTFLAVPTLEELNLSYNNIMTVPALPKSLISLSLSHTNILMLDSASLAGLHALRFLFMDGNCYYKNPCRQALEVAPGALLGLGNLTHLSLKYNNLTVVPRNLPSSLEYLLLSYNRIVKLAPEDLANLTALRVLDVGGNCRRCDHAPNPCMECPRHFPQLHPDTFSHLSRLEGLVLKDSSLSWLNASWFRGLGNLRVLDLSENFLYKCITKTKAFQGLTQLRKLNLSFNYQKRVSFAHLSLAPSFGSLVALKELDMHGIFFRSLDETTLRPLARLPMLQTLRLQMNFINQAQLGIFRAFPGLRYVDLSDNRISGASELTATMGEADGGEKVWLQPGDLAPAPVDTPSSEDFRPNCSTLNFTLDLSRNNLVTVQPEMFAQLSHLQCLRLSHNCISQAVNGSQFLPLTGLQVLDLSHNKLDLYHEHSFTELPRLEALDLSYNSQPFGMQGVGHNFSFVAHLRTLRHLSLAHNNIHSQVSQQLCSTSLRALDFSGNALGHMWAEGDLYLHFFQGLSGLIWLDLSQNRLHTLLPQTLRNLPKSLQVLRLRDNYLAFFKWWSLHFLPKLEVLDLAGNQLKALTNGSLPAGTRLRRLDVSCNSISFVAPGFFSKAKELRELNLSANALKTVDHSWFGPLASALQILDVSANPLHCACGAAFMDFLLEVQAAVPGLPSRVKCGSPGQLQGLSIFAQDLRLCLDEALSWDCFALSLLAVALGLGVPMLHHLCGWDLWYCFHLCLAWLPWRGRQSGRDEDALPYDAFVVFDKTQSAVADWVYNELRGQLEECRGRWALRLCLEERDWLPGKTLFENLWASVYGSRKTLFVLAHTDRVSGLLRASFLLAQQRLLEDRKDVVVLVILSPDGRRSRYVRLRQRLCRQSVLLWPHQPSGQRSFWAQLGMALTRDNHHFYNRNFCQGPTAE
Procedure: as §1

Sequence of human TLR7 (Q9NYK1 27-1049): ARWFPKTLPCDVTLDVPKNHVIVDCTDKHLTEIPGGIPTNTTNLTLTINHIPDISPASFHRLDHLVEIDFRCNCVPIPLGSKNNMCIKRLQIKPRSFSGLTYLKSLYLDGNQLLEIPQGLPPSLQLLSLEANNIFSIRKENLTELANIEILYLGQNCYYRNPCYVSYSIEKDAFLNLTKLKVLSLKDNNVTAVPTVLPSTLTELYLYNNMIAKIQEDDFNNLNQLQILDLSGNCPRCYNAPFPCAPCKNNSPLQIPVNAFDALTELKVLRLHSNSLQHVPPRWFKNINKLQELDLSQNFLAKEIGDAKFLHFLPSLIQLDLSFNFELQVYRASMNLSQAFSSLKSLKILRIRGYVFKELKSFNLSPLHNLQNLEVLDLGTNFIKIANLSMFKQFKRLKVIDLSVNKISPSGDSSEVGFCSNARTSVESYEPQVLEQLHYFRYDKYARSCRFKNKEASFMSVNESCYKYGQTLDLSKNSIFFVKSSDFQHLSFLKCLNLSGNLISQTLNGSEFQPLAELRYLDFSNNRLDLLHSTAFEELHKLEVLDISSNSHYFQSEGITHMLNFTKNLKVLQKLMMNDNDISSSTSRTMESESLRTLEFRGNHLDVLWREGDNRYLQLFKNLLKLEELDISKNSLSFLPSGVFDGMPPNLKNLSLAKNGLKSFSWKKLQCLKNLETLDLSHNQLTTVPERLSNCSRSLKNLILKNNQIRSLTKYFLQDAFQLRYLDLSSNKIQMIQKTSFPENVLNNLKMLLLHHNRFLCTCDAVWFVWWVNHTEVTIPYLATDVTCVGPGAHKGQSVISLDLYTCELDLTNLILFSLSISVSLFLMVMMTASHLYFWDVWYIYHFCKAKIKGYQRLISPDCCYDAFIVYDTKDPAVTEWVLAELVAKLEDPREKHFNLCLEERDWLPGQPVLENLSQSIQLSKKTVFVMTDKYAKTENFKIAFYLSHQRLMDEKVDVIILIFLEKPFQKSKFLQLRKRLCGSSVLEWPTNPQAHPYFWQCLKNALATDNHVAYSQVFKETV

IC50 (human TLR7)	IC50 (human TLR8)	IC50 (human TLR9)	SMILES
9.9 nM	11 nM	8310 nM	CNC(=O)CN1CCN(c2ncc3[nH]c(-c4cc(OC)c5ncnn5c4)c(C(C)C)c3c2C)CC1 [Example 40]
36 nM	158 nM	> 50000 nM	Cc1cc(-c2[nH]c3cnc(C4CCN(CC(F)(F)F)CC4)c(F)c3c2C(C)C)cn2ncnc12 [Example 41]
1.6 nM	0.59 nM	9180 nM	COc1cc(-c2[nH]c3cnc(N4CCC(NC5COC5)CC4)c(F)c3c2C(C)C)cn2ncnc12 [Example 42, 1-(4-fluoro-3-isopropyl-2-(8-methoxy-[1,2,4]triazolo[1,5-a]pyridin-6-yl)-1H-pyrrolo[2,3-c]pyridin-5-yl)-N-(oxetan-3-yl)piperidin-4-amine]
1 nM	0.6 nM	12700 nM	Cc1cc(-c2[nH]c3cnc(N4CCC(NC5(C)COC5)CC4)c(F)c3c2C(C)C)cn2ncnc12 [Example 43]
0.63 nM	0.36 nM	2770 nM	Cc1cc(-c2[nH]c3cnc(N4CCC(N5CC6(COC6)C5)CC4)c(F)c3c2C(C)C)cn2ncnc12 [Example 44]
2.2 nM	1.9 nM	2770 nM	Cc1cc(-c2[nH]c3cnc(N4CCC(N(C)CC(=O)N(C)C)CC4)c(F)c3c2C(C)C)cn2ncnc12 [Example 45]
12 nM	13 nM	9530 nM	Cc1cc(-c2[nH]c3cnc(C4CCC(NCC(C)(C)C)CC4)c(F)c3c2C(C)C)cn2ncnc12 (stereo not drawn) [Example 48]
0.46 nM	0.62 nM	2430 nM	Cc1cc(-c2[nH]c3cnc(C4CCC(NCC(C)(C)O)CC4)c(F)c3c2C(C)C)cn2ncnc12 (stereo not drawn) [Example 49]
0.76 nM	0.83 nM	1010 nM	Cc1c(-c2[nH]c3cnc(C4CCC(N5CC6(COC6)C5)CC4)c(F)c3c2C(C)C)cn2ncnc2c1C (stereo not drawn) [Example 50]
0.74 nM	0.58 nM	2770 nM	Cc1c(-c2[nH]c3cnc(N4CCC(N5CCC5)CC4)c(F)c3c2C(C)C)cn2ncnc2c1C [Example 51]
0.98 nM	0.42 nM	1860 nM	Cc1c(-c2[nH]c3cnc(N4CCC(N(C)C(C)C)CC4)c(F)c3c2C(C)C)cn2ncnc2c1C [Example 52]
0.5 nM	2 nM	1390 nM	Cc1c(N2CCC(N3CC4(COC4)C3)CC2)ncc2[nH]c(-c3cc(C)c4ncnn4c3)c(C(C)C)c12 [Example 53]
0.9 nM	0.3 nM	935 nM	Cc1c(-c2[nH]c3cnc(N4CCC(NCC5(C)COC5)CC4)c(C)c3c2C(C)C)cn2ncnc2c1C [Example 54]
1.3 nM	1.3 nM	769 nM	CCN(C)C1CCN(c2ncc3[nH]c(-c4cn5ncnc5c(C)c4C)c(C(C)C)c3c2C)CC1 [Example 55]
1.8 nM	1.5 nM	1010 nM	COc1cc(-c2[nH]c3cnc(N4CCC(NC56CC(C5)C6)CC4)c(C)c3c2C(C)C)cn2ncnc12 [Example 56]
4.9 nM	19 nM	682 nM	Cc1c(-c2[nH]c3cnc(C4CCC(N5CC6(COC6)C5)CC4)c(C)c3c2C(C)C)cn2ncnc2c1C (stereo not drawn) [Example 57]
60 nM	23 nM	692 nM	Cc1c(-c2[nH]c3cnc(C4CCC(NCC(C)(C)C)CC4)c(C)c3c2C(C)C)cn2ncnc2c1C (stereo not drawn) [Example 58]
15 nM	4.7 nM	197 nM	COc1cc(-c2[nH]c3cnc(C4CCC(NCC5(C)COC5)C4)cc3c2C(C)C)cn2ncnc12 (stereo not drawn) [Example 59]
5 nM	1.2 nM	502 nM	COc1cc(-c2[nH]c3cnc(C4CCC(NCC(C)(C)C)C4)cc3c2C(C)C)cn2ncnc12 (stereo not drawn) [Example 60]
28 nM	35 nM	346 nM	Cc1c(-c2[nH]c3cnc(C4CCC(NC(C)C)CC4)c(C)c3c2C(C)C)cn2ncnc2c1C (stereo not drawn) [Example 61]
4.2 nM	1.5 nM	2790 nM	COc1cc(-c2[nH]c3cnc(N4CCC(NC[C@@H](F)C(C)(C)O)CC4)c(C)c3c2C(C)C)cn2ncnc12 [Example 64]
2.2 nM	5.6 nM	3320 nM	Cc1cc(-c2[nH]c3cnc(C4CCN(C(=O)CN(C)C)CC4)c(F)c3c2C(C)C)cn2ncnc12 [Example 65]
2.1 nM	4.9 nM	3620 nM	Cc1cc(-c2[nH]c3cnc(C4CCN(C(=O)CN(C)C)CC4)c(F)c3c2C(C)C)cn2ncnc12 [Example 66]
9.1 nM	11 nM	5800 nM	COc1cc(-c2[nH]c3cnc(N4CCC(NCC5(C)COC5)CC4)c(F)c3c2C(C)C)cn2ncnc12 [Example 67]
0.55 nM	0.55 nM	4050 nM	CCN(C)C1CCN(c2ncc3[nH]c(-c4cc(C)c5ncnn5c4)c(C(C)C)c3c2F)CC1 [Example 69]
0.23 nM	0.78 nM	4000 nM	Cc1cc(-c2[nH]c3cnc(N4CCC(N5CCC5)CC4)c(F)c3c2C(C)C)cn2ncnc12 [Example 70]

IC50 (human TLR7)	IC50 (human TLR8)	IC50 (human TLR9)	SMILES
0.41 nM	0.65 nM	3610 nM	CNC1CCN(c2ncc3[nH]c(-c4cc(C)c5ncnn5c4)c(C(C)C)c3c2F)CC1 [Example 71]
1.5 nM	1.3 nM	6080 nM	COc1cc(-c2[nH]c3cnc(N4CCC(N(C)CC(=O)N(C)C)CC4)c(F)c3c2C(C)C)cn2ncnc12 [Example 72]
0.87 nM	0.77 nM	2960 nM	COc1cc(-c2[nH]c3cnc(C4CCC(NC(C)C)CC4)c(F)c3c2C(C)C)cn2ncnc12 (stereo not drawn) [Example 73]
2.5 nM	5.6 nM	447 nM	COc1cc(-c2[nH]c3cnc(C4CCC(N5CCC5)CC4)c(F)c3c2C(C)C)cn2ncnc12 (stereo not drawn) [Example 75]
0.58 nM	3.8 nM	959 nM	COc1cc(-c2[nH]c3cnc(C4CCC(N(C)C(C)C)CC4)c(F)c3c2C(C)C)cn2ncnc12 (stereo not drawn) [Example 76]
2.7 nM	4.5 nM	403 nM	CCN(C)C1CCC(c2ncc3[nH]c(-c4cc(OC)c5ncnn5c4)c(C(C)C)c3c2F)CC1 (stereo not drawn) [Example 77]
4.3 nM	11 nM	8620 nM	COc1cc(-c2[nH]c3cnc(C4CCC(N(C)CC(N)=O)CC4)c(F)c3c2C(C)C)cn2ncnc12 (stereo not drawn) [Example 78]
3 nM	3.6 nM	842 nM	COc1cc(-c2[nH]c3cnc(C4CCC(N(C)CC(=O)N(C)C)CC4)c(F)c3c2C(C)C)cn2ncnc12 (stereo not drawn) [Example 79]
0.16 nM	0.6 nM	1830 nM	Cc1cc(-c2[nH]c3cnc(C4CCC(NC5COC5)CC4)c(F)c3c2C(C)C)cn2ncnc12 (stereo not drawn) [Example 80]
0.15 nM	0.61 nM	2170 nM	Cc1cc(-c2[nH]c3cnc(C4CCC(NC5(C)COC5)CC4)c(F)c3c2C(C)C)cn2ncnc12 (stereo not drawn) [Example 81]
0.18 nM	0.36 nM	1460 nM	Cc1cc(-c2[nH]c3cnc(C4CCC(NC5CCOCC5)CC4)c(F)c3c2C(C)C)cn2ncnc12 (stereo not drawn) [Example 82]
1.3 nM	1.4 nM	9100 nM	CCN(C)C1CCN(c2ncc3[nH]c(-c4cn5ncnc5c(C)c4C)c(C(C)C)c3c2F)CC1 [Example 83]
2.6 nM	1.1 nM	924 nM	Cc1c(-c2[nH]c3cnc(C4CCC(NC(C)C)CC4)c(F)c3c2C(C)C)cn2ncnc2c1C (stereo not drawn) [Example 85]
0.37 nM	0.43 nM	1130 nM	COc1cc(-c2[nH]c3cnc(N4CCC(N(C)C(C)C)CC4)c(C)c3c2C(C)C)cn2ncnc12 [Example 86]
0.33 nM	1 nM	701 nM	COc1cc(-c2[nH]c3cnc(N4CCC(N5CCC5)CC4)c(C)c3c2C(C)C)cn2ncnc12 [Example 87]
0.62 nM	0.28 nM	322 nM	Cc1c(-c2[nH]c3cnc(N4CCC(NCC(C)(C)O)CC4)c(C)c3c2C(C)C)cn2ncnc2c1C [Example 88]
6.5 nM	4.9 nM	435 nM	COc1cc(-c2[nH]c3cnc(C4CCC(NC[C@@H](F)C(C)(C)O)CC4)c(C)c3c2C(C)C)cn2ncnc12 (stereo partly drawn) [Example 89]
40 nM	27 nM	676 nM	Cc1c(-c2[nH]c3cnc(C4CCC(NC5COC5)CC4)c(C)c3c2C(C)C)cn2ncnc2c1C (stereo not drawn) [Example 91]
34 nM	32 nM	548 nM	Cc1c(-c2[nH]c3cnc(C4CCC(NCC(C)(C)O)CC4)c(C)c3c2C(C)C)cn2ncnc2c1C (stereo not drawn) [Example 92]
18 nM	37 nM	2830 nM	COc1cc(-c2[nH]c3cnc(C4CCC(NC5COC5)C4)cc3c2C(C)C)cn2ncnc12 (stereo not drawn) [Example 93]
41 nM	35 nM	1380 nM	COc1cc(-c2[nH]c3cnc(C4CCC(NCC(C)(C)C)C4)cc3c2C(C)C)cn2ncnc12 (stereo not drawn) [Example 95]
24 nM	7.7 nM	294 nM	COc1cc(-c2[nH]c3cnc(C4CCC(NCC(C)(C)OC)C4)cc3c2C(C)C)cn2ncnc12 (stereo not drawn) [Example 96]
2.5 nM	7.4 nM	1080 nM	Cc1cc(-c2[nH]c3cnc(C4CCN(C(C)C)CC4)c(F)c3c2C(C)C)cc(C)n1 [Example 97]
4.7 nM	14 nM	1200 nM	CNCC(=O)N1CCN(c2ncc3[nH]c(-c4cc(OC)c5ncnn5c4)c(C(C)C)c3c2C)CC1 [Example 98]
0.49 nM	0.41 nM	3980 nM	COCCNC1CCN(c2ncc3[nH]c(-c4cc(OC)c5ncnn5c4)c(C(C)C)c3c2F)CC1 [Example 99]
